15 compounds from patent publication US20030153622A1, “Ophthalmic solution and contact lens solution” (MENICON CO., LTD., priority 2001, published 2003) can be followed below.

A short description of this data set: Characteristics of Component B (isoelectric point; pH and osmotic pressure in 0.1 mol/L aqueous solution). In kind it is physicochemical. The following applies: for Isoelectric point: Component B; for Osmotic pressure / pH: Component B in 0.1 mol/L aqueous solution. An excerpt:
As the Component A, polyhexamethylene biguamide (PHMB) was used. As the Component B (tonicity adjusting agent), different kinds of the amino-acid-based components having different isoelectric points as indicated in the following TABLE 2 were used. […] As the chelating agent, disodium salt of ethylenediamine tetraacetic acid (EDTA·2Na) was used.

`Cl.N=C(N)NCCC[C@H](N)C(=O)O` [arginine hydrochloride] showed an Isoelectric point of 10.76, an Osmotic pressure of 181 mOsm/kg and a pH of 5.62.

With `NCCCCCC(=O)O` [ε-aminocaproic acid], the Isoelectric point was found to be 7.60, the Osmotic pressure came out at 106 mOsm/kg and the pH was determined as 7.54.

In the case of `N[C@@H](CO)C(=O)O` [L-serine], the Isoelectric point is on record as 5.68, the Osmotic pressure is 105 mOsm/kg and the pH came out at 6.12.

`NCCS(=O)(=O)O` [taurine]: the Isoelectric point is 4.50, the Osmotic pressure is given as 106 mOsm/kg and the pH is listed as 5.19.

Regarding `N[C@@H](CS)C(=O)O` [L-cysteine], the Isoelectric point stood at 5.07, the Osmotic pressure is reported as 102 mOsm/kg and the pH is given as 5.86.

In turn, `Cl.NCCCC[C@H](N)C(=O)O` [lysine hydrochloride] displayed an Isoelectric point of 9.74, an Osmotic pressure of 105 mOsm/kg and a pH of 5.91.

On to `O=C(O)[C@@H]1C[C@@H](O)CN1` [L-oxyproline], for which the Isoelectric point was determined as 5.83, the Osmotic pressure is recorded as 105 mOsm/kg and the pH was 5.87.

Consider `CC(C)[C@H](N)C(=O)O` [L-valine], for which the Isoelectric point came to 5.96, the Osmotic pressure turned out to be 103 mOsm/kg and the pH was found to be 7.83.

For `N=C(N)NCCC[C@H](N)C(=O)O` [arginine], the Isoelectric point is recorded as 10.76, the Osmotic pressure is 100 mOsm/kg and the pH was 11.20.

As for `Cl.N[C@@H](Cc1c[nH]cn1)C(=O)O` [L-histidine hydrochloride], the Isoelectric point amounted to 7.59, the Osmotic pressure was 105 mOsm/kg and the pH turned out to be 5.80.

With `C[C@@H](O)[C@H](N)C(=O)O` [L-threonine], the Isoelectric point worked out at 6.16, the Osmotic pressure is on record as 102 mOsm/kg and the pH was 5.88.

`CC(N)C(=O)O` (racemic) [DL-alanine] showed an Isoelectric point of 6.00, an Osmotic pressure of 104 mOsm/kg and a pH of 6.05.

With `NCCCC(=O)O` [γ-aminobutyric acid], the Isoelectric point stood at 7.30, the Osmotic pressure was determined as 107 mOsm/kg and the pH came out at 5.96.

As for `O=C(O)[C@@H]1CCCN1` [L-proline], the Isoelectric point was determined as 6.30, the Osmotic pressure was 104 mOsm/kg and the pH was 5.90.

`N[C@@H](Cc1ccccc1)C(=O)O` [L-phenylalanine] returned an Isoelectric point of 5.48, an Osmotic pressure of 105 mOsm/kg and a pH of 6.14.
